“And” between values parts separate entries of the source, which are not always exact repeats. Equal values may be shown once.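 Growth conditions: 96-well plates. Treatment: test compound, 48 hours, 5 concentrations. Analysis: linear interpolation between bracketing concentrations; unreached endpoints set to highest concentration. The concentration for 50% growth inhibition is given as GI50. TGI is the concentration that stops growth completely.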

Assay in all cases: NCI anticancer screen, dose series, 48 h
The test system of assay [1] is 786-0 renal.
The subject of assay [2] is A498 renal.
For assay [3], the system named is HCC-2998 colon.
The test system of assay [4] is M14 melanoma.
Assay [5] deals with NCI-H23 lung.
For assay [6], the system named is NCI-H522 lung.
Assay [7] has as its system OVCAR-3 ovarian.
Assay [8] concerns OVCAR-5 ovarian.
The subject of assay [9] is SNB-75 CNS.
For assay [10], the system named is UACC-62 melanoma.

Take `O=C(Nc1cccc(C(F)(F)F)c1)Nc1cc(S(=O)(=O)NC2CC2)ccc1-c1ccsc1`: the GI50 is 6.1 µM in [1]; 2.45 µM in [2]; 6.15 µM in assay [3]; 4.32 µM in assay [4]; 4.03 µM in assay [5]; 3.05 µM in assay [6]. Also, the GI50 in assay [7] is 4.02 µM; in assay [8], 5.96 µM; in assay [9], 3.45 µM; in assay [10], 2.93 µM. Further, the TGI in assay [1] was found to be 20.9 µM; in assay [2], 7.31 µM; in [3] it was 19.8 µM; in assay [4], 18.4 µM; in [5] it was 16.6 µM; in assay [6], 13 µM. Moreover, the TGI in [7] amounted to 14.9 µM; in [8] it was 20.2 µM; in [9] it was 16.4 µM; in assay [10], 13.8 µM.

Take `Cc1ccc(S(=O)(=O)NCc2cccc([N+](=O)[O-])c2)cc1`: the TGI in assay [1], in assay [2], in [4], in assay [5], in assay [6] and in [7] was > 100 µM in each case. The TGI in [8], in [9] and in assay [10] was > 100 µM in each case.

As for `Oc1ccc(/C=N/Nc2nnc(N/N=C/c3ccc(O)cc3O)c3ccccc23)c(O)c1`, the GI50 is 0.593 µM in [1]; 1.33 µM in assay [2]; 0.446 µM in assay [3]; 0.358 µM in assay [4]; 0.707 µM in assay [5]; 0.253 µM in assay [6]. The GI50 was 0.385 µM in [7], 1.36 µM in [8], 0.361 µM in assay [9] and 0.318 µM in assay [10]. Also, the TGI was determined as 2.46 µM in assay [1]; 3.51 µM in [2]; 2.42 µM in assay [3]; 1.53 µM in assay [4]; 2.77 µM in assay [5]; 0.799 µM in [6]. Further, the TGI in [7] was 0.489 µM and 1.9 µM; in assay [8], 15.8 µM; in assay [9], 1.44 µM; in assay [10], 0.602 µM and 1.58 µM.

As to `CC(C)C12CCC3(CCC4C(C)(C(=O)O)CCCC4(C)C3C1)C(CN)C2` (stereo not drawn), the TGI is 54.4 µM in assay [1]; 98.4 µM in assay [2]; 36.2 µM in assay [3]; > 100 µM in [4]; 72.1 µM in [5]; 70.3 µM in assay [6]. Also, the TGI in assay [7] is > 100 µM; in assay [8], 90.4 µM; in [9], > 100 µM; in assay [10], > 100 µM.

On to `Cc1nc(-c2cccnc2)sc1C(=O)/C=C/c1ccc(Cl)cc1Cl`, for which the TGI in assay [1], in assay [2], in [3], in assay [5], in assay [6] and in [7] was > 100 µM throughout. In addition, the TGI in [8], in [9] and in assay [10] was > 100 µM in each case.

As to `COc1cc([C@H]2c3cc(O)c(OC)cc3C[C@]3(O)[C@@H]2CO[C@@H]3O)ccc1O`, the TGI in [1], in assay [2], in assay [3], in assay [4], in assay [5] and in [6] was > 100 µM each time. The TGI in assay [7], in [8], in assay [9] and in assay [10] was > 100 µM in each case.

In the case of `CCOC(=O)NC/C=C/CO`, the TGI in assay [1], in assay [2], in assay [3], in assay [4], in assay [6] and in assay [9] was > 100 µM throughout. Besides, the TGI in [10] is > 100 µM.

In the case of `COC(=O)C(NC(=O)c1ccccc1)c1ccc(OC)c(I)c1` (stereo not drawn), the GI50 was > 100 µM in assay [1]; > 100 µM in assay [2]; 54.5 µM in assay [3]; 52.3 µM in assay [4]; 43.6 µM in assay [6]; 37.4 µM in assay [7]. For the same molecule, the GI50 in assay [8] was > 100 µM; in assay [9], 56.7 µM; in [10], 52.9 µM. The TGI was > 100 µM in [1]; > 100 µM in [2]; > 100 µM in assay [3]; > 100 µM in assay [4]; > 100 µM in assay [6]; 88.2 µM in assay [7]. Also, the TGI in [8], in assay [9] and in assay [10] was > 100 µM throughout.

Consider `Cc1cccc(Cc2cnc(NC(=O)CCCOc3ccc(Cl)cc3)s2)c1`, for which the GI50 in assay [1] is 5.95 µM; in assay [2], 1.36 µM; in [3] it was 9.46 µM; in [4], 3.68 µM; in assay [5], 28 µM; in [6], 51.1 µM. The GI50 is 3.4 µM in assay [7], 5.88 µM in assay [8], 2.66 µM in [9] and 9.45 µM in assay [10]. For the same molecule, the TGI in [1] is > 100 µM; in [2], 6.25 µM; in assay [3], > 100 µM; in assay [4], > 100 µM; in assay [5] it was > 100 µM; in [6], > 100 µM. Moreover, the TGI in assay [7], in assay [8], in assay [9] and in [10] was > 100 µM each time.

Consider `CC(=O)OCc1cc2c(s1)C(=O)c1sccc1C2=O`, for which the TGI in assay [1] is 1.84 µM; in assay [2], 3.23 µM; in [3], 3.22 µM; in assay [4], < 0.0189 µM; in [5] it was 0.0378 µM; in assay [6] it was 0.295 µM. In addition, the TGI in assay [7] came to 0.492 µM; in assay [8], 0.332 µM; in [9] it was 0.12 µM; in assay [10], 0.305 µM.

With `CN(C)c1ccc(/C=C2\Cc3ccccc3C2=O)cc1Br`, the TGI in assay [1] is > 100 µM; in assay [2], > 100 µM; in assay [3], > 100 µM; in assay [4], > 100 µM; in assay [5], > 100 µM; in assay [6], 70.6 µM. For the same molecule, the TGI in [7], in [8], in assay [9] and in assay [10] was > 100 µM each time.

Consider `O=[N+]([O-])c1cccc(C2=NOC3CCCC23)c1` (stereo not drawn), for which the TGI in assay [1], in assay [2], in [3], in [4], in assay [5] and in assay [6] was > 100 µM each time. Further, the TGI in [7], in [8], in assay [9] and in assay [10] was > 100 µM each time.

`CC(C)c1nc(Cl)c(Cl)c(Cl)n1`: the TGI turned out to be 16.1 µM in [1]; 52 µM in [2]; 15.7 µM in assay [3]; 19 µM in assay [4]; 22.3 µM in assay [5]; 8.64 µM in assay [6]. Besides, the TGI is 8.2 µM in assay [7], 17.7 µM in [8], 25.8 µM in assay [9] and 23.1 µM in [10].

For `CCn1c(SC)nnc1-c1cc2c([nH]c3ccccc32)c(-c2cccc(O)c2)n1`, the GI50 in [1] is 2.77 µM; in assay [2], 1.42 µM; in assay [3], 4.94 µM; in assay [4], 1.48 µM; in assay [5], 4.51 µM; in assay [6], 1.06 µM. Moreover, the GI50 in assay [7] was 1.67 µM; in assay [8] it was 10 µM; in assay [9], 1.3 µM; in assay [10], 1.27 µM. In addition, the TGI turned out to be 10.9 µM in assay [1]; 10.9 µM in assay [2]; 62.3 µM in [3]; 12.5 µM in assay [4]; 50.6 µM in assay [5]; 11.8 µM in [6]. Besides, the TGI in assay [7] was determined as 5.35 µM; in assay [8] it was 43.1 µM; in [9], 3.94 µM; in [10] it was 8.71 µM.

In the case of `CC(C)(CCc1nc2ccccc2[nH]1)C(=O)O`, the TGI in [1], in [2], in assay [3], in [4], in assay [5] and in assay [6] was > 100 µM in each case. For the same molecule, the TGI in assay [7], in assay [8], in [9] and in [10] was > 100 µM in each case.

Take `Cc1cc(C2(c3cc(C)c(O)c4ncccc34)OC(=O)c3ccccc32)c2cccnc2c1O`: the GI50 in assay [1] was 0.114 µM; in assay [2], 12.3 µM; in [4] it was 0.0162 µM; in assay [5] it was 0.0145 µM; in assay [10], 0.0209 µM. Further, the TGI in assay [1] was > 100 µM; in [2], > 100 µM; in assay [3], > 100 µM; in assay [6] it was > 100 µM; in assay [8], > 100 µM; in assay [9], 6.82 µM and 8.1 µM. In assay [10], this molecule displayed a TGI of 14.6 µM.

For `O=C1NC2(CCCCC2)C2=C1CCCCC2`, the TGI in assay [1], in assay [2], in assay [4], in [5], in [6] and in assay [7] was > 100 µM in each case. For the same molecule, the TGI in assay [8], in [9] and in assay [10] was > 100 µM throughout.

Turning to `COC(=O)C1=C(C)C(=O)C2(CCCCCC2C(=O)OC)C1` (stereo not drawn), the TGI in assay [1], in assay [2], in [3], in assay [4], in assay [5] and in assay [6] was > 100 µM each time. In addition, the TGI in assay [8], in [9] and in [10] was > 100 µM each time.

In the case of `CCNC(=O)O/N=C1/C=C2CC[C@@H]3C(CC[C@@]4(C)C3CC[C@@H]4OC(=O)NCC)[C@@]2(C)CC1` (stereo partly drawn), the TGI in assay [1] is 10.7 µM; in assay [2] it was > 100 µM; in [3] it was 15.2 µM; in assay [4], 8.22 µM; in [5] it was 10.8 µM; in assay [6] it was 4.77 µM. The TGI in [8] came to 20 µM; in assay [9], 5.94 µM; in [10], 7.92 µM.

For the molecule `O=C(/C=C/N1CCN(c2cccc(Cl)c2)CC1)c1ccc(Cl)cc1`, the GI50 was 33.9 µM in assay [1]; 21.8 µM in [2]; 24.9 µM in [3]; 19.6 µM in [4]; 39 µM in [5]; 18.9 µM in [6]. Also, the GI50 in assay [7] was 24.1 µM; in assay [8], 49.7 µM; in assay [10], 27.3 µM. In addition, the TGI was > 100 µM in [1]; 48.1 µM in [2]; 50.5 µM in assay [3]; 42.3 µM in assay [4]; > 100 µM in assay [5]; 54.6 µM in [6]. Moreover, the TGI is 73.7 µM in assay [7], > 100 µM in [8] and 83.5 µM in assay [10].

On to `COc1cc(-c2nn(-c3cccc(NC(=O)c4cccc(C(F)(F)F)c4)c3)cc2-c2ccncc2)ccc1Cl`, for which the GI50 was 2.45 µM in [1]; 0.687 µM in assay [2]; 2.24 µM in assay [3]; 1.63 µM in assay [4]; 1.56 µM in assay [5]; 1.05 µM in [6]. In addition, the GI50 is 1.2 µM in [7], 4.01 µM in [8] and 1.94 µM in assay [10]. Also, the TGI was > 50 µM in assay [1]; 2.78 µM in assay [2]; 17.6 µM in [3]; > 50 µM in assay [4]; 32.5 µM in assay [5]; 3.85 µM in assay [6]. Further, the values for the TGI in assay [7], in assay [8] and in assay [10] were 2.98 µM, > 50 µM and > 50 µM, respectively.

Values taken from PubChem BioAssay (NCI).
